Like-named read-outs stand apart in the source and are kept apart here.
Assays:
U87MG = assay: In vitro anti-tumor activity evaluation test (CCK-8), U87MG; assay type: cell-based, human; settings: U87MG, 72 h; for IC50: read-out: IC50 against different tumor cell lines; for inhibition at 1 µM: read-out: Inhibitory rates against tumor cell lines
Procedure: (§1) • (1) Cells were digested and counted. Cell suspensions (H520, SW620 5.0×10^4 cells/mL, and U87MG 3.5×10^4 cells/mL) were prepared. 100 μL of cell suspension was added to each well of a 96-well cell culture plate. • (2) The 96-well cell culture plate was incubated in a 37° C., 5%, CO2 incubator for 24 h. • (3) A drug was diluted with a culture medium to a desired working solution concentration. 100 μL of the corresponding drug-containing culture medium was added to each well. At the same time, a negative control group and a positive control group were set up. • (4) The 96-well cell culture plate was incubated in a 37° C., 5%, CO2 incubator for 72 h. • (5) The 96-well plate was stained with CCK-8, and at λ=450 nm, the OD value was determined. • 1) 10 μL of CCK-8 was added to each well. The culture plate continued to be incubated in the incubator for 2-3 h. • 2) The culture plate was rocked for 10 min to gently mix and remove air bubbles from the 96-well plate. • 3) At λ=450 nm, the OD value of each well was read by the enzyme marker, and the inhibitory rates were calculated. • (6) According to the following equation (1), the growth inhibitory rate of the tumor cells was obtained. The obtained results were substituted into an IC 50 calculation software SPSS17.0 to find out the IC50 value.

NCI-H520 = assay: In vitro anti-tumor activity evaluation test (CCK-8), NCI-H520; assay type: cell-based, human; settings: NCI-H520, 72 h; for IC50: read-out: IC50 against different tumor cell lines; for inhibition at 1 µM: read-out: Inhibitory rates against tumor cell lines
Procedure: as §1

SW620 = assay: In vitro anti-tumor activity evaluation test (CCK-8), SW620; assay type: cell-based, human; settings: SW620, 72 h; for IC50: read-out: IC50 against different tumor cell lines; for inhibition at 1 µM: read-out: Inhibitory rates against tumor cell lines
Procedure: as §1

[1] = tested on: human brain glioma U87MG-LUC; assay: In vivo anti-tumor activity against malignant brain glioma (in situ U87MG-LUC model); parameters: species or system BABLc/nude mice; settings: for growth of malignant brain gliomas in mice: after administration for 3 weeks; for brain weight / living and physical conditions of mice / tumor volume / bioluminescence signal intensity of gliomas: versus model group; for bioluminescence signal intensity of gliomas: which increases rapidly
From the text: • Source, germ line, strain: BABLc/nude mice, provided by Shanghai Slaughter Laboratory Animal Co., Ltd., China. • Experimental animal production license: SOCK (Shanghai) 2017-0005 • Certificate of Conformity No.: 20170005040021 • Experimental animal use license: SYXK (Su) 2017-0040 • Age: 4-5 weeks • Sex: female • Number of animals: 5 animals per group, 15 animals in total Experimental Instrument: • Small animal in vivo 3D imaging system Spectrum, PerkinElmer
The cultured human brain glioma U87MG-LUC cell suspension with a concentration of 5×10^7 cells/mL was collected and each animal was inoculated in situ with 20 μL of the cell suspension. 10% chloral hydrate was injected intraperitoneally to anesthetize the mice, and the heads of the mice were fixed with a stereotaxic instrument. The skin of the head was disinfected with an alcohol swab. The skin of the head was cut along the direction of midline of the brain at its slightly right. The right hemisphere was taken as the reference point for fontanelle, 2 mm to the right of the midline, and 1 mm in front as the entry point, and the skull was ground open with a micro-abrasive drill. The cells were fully resuspended with a gun head, a syringe was used to extract the cell suspension. A vertical needle fixed by a stereotaxic instrument was used to feed 3.5 mm and quit 0.5 mm, then stood for 1 min and slowly injected the cells. After injection, the needle was stood for 1 min and slowly withdrawn. Alcohol swabs were used to disinfect the skin, and mice were put back into the feeding cages to wake up naturally after suturing the skin with stitches.
After 14 days of cell inoculation, the animals were randomly grouped, with 5 animals in each group. At the same time, each group of nude mice began to administer drugs. The drug administration protocol is shown in the group and drug administration protocol. At the end of the experiment, the nude mice were executed immediately. The brain tissues were surgically stripped, photographed, and weighed.
Two animals in each group were selected and injected intraperitoneally with Luc bioluminescence signal substrate, 100 μL/each animal, before administration, 1 week, 2 weeks, and 3 weeks after drug administration, respectively. 10 min later, the mice were anesthetized with isoflurane and placed on black box loading platform of an instrument for in vivo imaging detection to observe the bioluminescence signal of in situ tumors in mice's brains.

[2] = In vitro NO release test (incubation with L-cysteine, OD at 550 nm); settings: 100 μM solution with cysteine solution, 37° C.
Procedure: • (1) Sodium nitrite solutions with different concentrations were prepared. A calibration curve was drawn. • (2) The sample was treated. A 100 μM solution was prepared. 2.5 mL of the prepared compound solution and 2.5 mL of the cysteine solution were taken and incubated at 37° C. for 120 min, and the resulting mixture was sampled at different time points. • (3) A blank hole and a standard hole were set. 160 μL of the sample was collected and mixed evenly with 0.08 mL of a developer and stood at 37° C. for 15 min. At λ=550 nm, the OD value of absorbance was measured by the enzyme marker. The NO release levels were obtained by substituting the value into the standard curve.

living and physical conditions of mice [1]	IC50 (U87MG; Homo sapiens, U-87 MG) [nM]	IC50 (NCI-H520; Homo sapiens) [nM]	IC50 (SW620; Homo sapiens, SW-620) [nM]	Structure (SMILES)	growth of malignant brain gliomas in mice [1]	brain weight [1]	tumor volume [1]	bioluminescence signal intensity of gliomas [1]	inhibition at 1 µM (U87MG; Homo sapiens, U-87 MG, 1 μM) [%]	inhibition at 1 µM (NCI-H520; Homo sapiens, 1 μM) [%]	inhibition at 1 µM (SW620; Homo sapiens, SW-620, 1 μM) [%]	NO-release concentrations ([2]; 5 min) [µM]	NO-release concentrations ([2]; 10 min) [µM]	NO-release concentrations ([2]; 20 min) [µM]	NO-release concentrations ([2]; 30 min) [µM]	NO-release concentrations ([2]; 60 min) [µM]	NO-release concentrations ([2]; 90 min) [µM]	NO-release concentrations ([2]; 120 min) [µM]	other results
	323 ± 13			C=C[C@]1(C)CC[C@@H](C(=C)CN2CC[C@H](OC(=O)CCC(=O)OCCOc3no[n+]([O-])c3S(=O)(=O)c3ccccc3)C2)C[C@H]1C(=C)CCl [Example 9, 4-(2-((4-(((S)-1-(2-((1R,3R,4S)-3-(3-chloroprop-1-en-2-yl)-4-methyl-4-vinylcyclohexyl)allyl)pyrrolidine-3-ly)oxy)-4-oxobutanoyl)oxy)ethyoxyl)-3-(phenylsulfonyl)-1,2,5-oxadiazole 2-oxide]					51.3 ± 1.3	44.5 ± 2.8	39.3 ± 4.2	3.25	3.90	5.98	7.59	11.11	17.29	23.48	
	811 ± 16		1090 ± 40	C=C[C@]1(C)CC[C@@H](C(=C)CN2CCCC(COC(=O)CCC(=O)OCCOc3no[n+]([O-])c3S(=O)(=O)c3ccccc3)C2)C[C@H]1C(=C)CCl (stereo partly drawn) [Example 17, 4-(2-((4-((1-(2-((1R,3R,4S)-3-(3-chloroprop-1-en-2-yl)-4-methyl-4-vinylcyclohexyl)allyl)piperidin-3-yl)methoxyl)-4-oxobutanoyl)oxy)ethyoxyl)-3-(phenylsulfonyl)-1,2,5-oxadiazole 2-oxide]					51 ± 2.2	45.4 ± 1.9	38.3 ± 3	4.84	5.66	6.95	8.44	12.43	17.81	22.91	

More lines, now with the values behind:

Structure (SMILES)	living and physical conditions of mice [1]	IC50 (U87MG; Homo sapiens, U-87 MG) [nM]	IC50 (NCI-H520; Homo sapiens) [nM]	IC50 (SW620; Homo sapiens, SW-620) [nM]	growth of malignant brain gliomas in mice [1]	brain weight [1]	tumor volume [1]	bioluminescence signal intensity of gliomas [1]	inhibition at 1 µM (U87MG; Homo sapiens, U-87 MG, 1 μM) [%]	inhibition at 1 µM (NCI-H520; Homo sapiens, 1 μM) [%]	inhibition at 1 µM (SW620; Homo sapiens, SW-620, 1 μM) [%]	NO-release concentrations ([2]; 5 min) [µM]	NO-release concentrations ([2]; 10 min) [µM]	NO-release concentrations ([2]; 20 min) [µM]	NO-release concentrations ([2]; 30 min) [µM]	NO-release concentrations ([2]; 60 min) [µM]	NO-release concentrations ([2]; 90 min) [µM]	NO-release concentrations ([2]; 120 min) [µM]	other results
C=C[C@]1(C)CC[C@@H](C(=C)C)C[C@H]1C(=C)C [β-elemene]	much better than the model group				effectively inhibited	significantly lighter than that of the model group	significantly smaller than that in the model group	declines dramatically											Inhibitory rates against tumor cell lines (U87MG; 1 μM): 4.3 ± 2.2%; IC50 (U87MG): > 100000 nM; Inhibitory rates against tumor cell lines (NCI-H520; 1 μM): 3.2 ± 0.7%; IC50 (NCI-H520): > 100000 nM; Inhibitory rates against tumor cell lines (SW620; 1 μM): 2.5 ± 4.1%; IC50 (SW620): > 100000 nM; inhibitory activity (bioluminescence signal of glioma) ([1]; first week of administration): > 20%
C=C[C@]1(C)CC[C@@H](C(=C)CN(C)CCOC(=O)CCCC(=O)OCC#CCOc2no[n+]([O-])c2S(=O)(=O)c2ccccc2)C[C@H]1C(=C)CCl [Example 4]	much better than the model group	369 ± 13	719 ± 17	858 ± 33	effectively inhibited	significantly lighter than that of the model group	significantly smaller than that in the model group	declines dramatically	55.5 ± 1.9	48.7 ± 2	47.5 ± 3.7	12.53	14.80	19.55	23.6	42.31	66.97	93.18	blocking of tumor growth ([1]; last week of administration (3 weeks)): > 90%
C=C[C@]1(C)CC[C@@H](C(=C)CN2CCN(CCOC(=O)CCCC(=O)OCC#CCOc3no[n+]([O-])c3S(=O)(=O)c3ccccc3)CC2)C[C@H]1C(=C)CCl [Example 24, 4-((4-((5-(2-(4-(2-((1R,3R,4S)-3-(3-chloroprop-1-en-2-yl)-4-methyl-4-vinylcyclohexyl)allyl)piperazin-1-yl)ethyoxyl)-5-oxyglutaryl)oxy)but-2-yn-1-yl)oxy)-3-(phenylsulfonyl)-1,2,5-oxadiazole 2-oxide]		960 ± 75	1062 ± 2						50.3 ± 1.2	46.8 ± 2.1	43.2 ± 5.5	10.64	11.37	12.38	13.68	18.24	25.90	34.64	

Reference: US12624012B2, “14-chloro-β-elemene nitric oxide donor derivative and preparation method and use thereof” (HANGZHOU NORMAL UNIVERSITY, priority 2021, dated 2026)
